Results: the C3SDB collision cross section collection
Where “and” joins values, the source holds several entries; their conditions need not be identical. Equal entries are not always repeated.

conditions: [M+H]+; instrument: TW; calibrated with polyalanine and drug standards

Compound | collision cross section (N2)
C[C@]12CCC(=O)C=C1CC[C@@H]1[C@@H]2[C@@H](O)C[C@@]2(C)[C@H]1CC[C@]2(O)C(=O)COC(=O)CCC(=O)O [HYDROCORTISONE HEMISUCCINATE] | 212.4 Å²
CCCCC(=O)O[C@]1(C(=O)CO)CC[C@H]2[C@@H]3CCC4=CC(=O)CC[C@]4(C)[C@H]3[C@@H](O)C[C@@]21C [HYDROCORTISONE VALERATE] | 212.5 Å²
C[C@]12CCC(=O)C=C1CC[C@@H]1[C@@H]2[C@@H](O)C[C@@]2(C)[C@H]1CC[C@]2(O)C(=O)CO [HYDROCORTISONE] | 185.1 Å²
CC(C)Cc1ccc(C(C)C(=O)O)cc1 (centres undefined) [IBUPROFEN] | 144 Å²
COc1ccc(-c2oc3c(CC=C(C)C)c(O[C@@H]4O[C@H](CO)[C@@H](O)[C@H](O)[C@H]4O)cc(O)c3c(=O)c2O[C@@H]2O[C@@H](C)[C@H](O)[C@@H](O)[C@H]2O)cc1 [ICARIIN] | 260.8 Å²
O=P1(NCCCl)OCCCN1CCCl (centres undefined) [IFOSFAMIDE] | 147 Å²
COc1ccc2c(c1)c(CC(=O)O)c(C)n2C(=O)c1ccc(Cl)cc1 [INDOMETHACIN] | 179 Å²
CC(C(=O)O)c1ccc(N2Cc3ccccc3C2=O)cc1 (centres undefined) [INDOPROFEN] | 166.6 Å²
Oc1c(I)cc(I)c2cccnc12 [IODOQUINOL] | 143.7 Å²
COc1cc(-c2coc3cc(OCc4ccccc4)c(OC)c(O)c3c2=O)cc(O)c1OC [IRIGENIN, 7-BENZYL ETHER] | 198.6 Å² and 212.4 Å²
COc1cc(-c2coc3cc(OCc4ccccc4)c(OC)c(O)c3c2=O)cc(OCc2ccccc2)c1OC [IRIGENIN, DIBENZYL ETHER] | 234.1 Å²
C=C1CCC2C(CC2(C)C)C(=O)CCC1O (centres undefined) [ISOKOBUSONE] | 146 Å²
CC(C)NCC(O)c1ccc(O)c(O)c1 (centres undefined) [ISOPROTERENOL] | 149.4 Å²
C/C=C/c1ccc2c(c1)OCO2 [ISOSAFROLE] | 138.4 Å²
CCC(C)n1ncn(-c2ccc(N3CCN(c4ccc(OCC5COC(Cn6cncn6)(c6ccc(Cl)cc6Cl)O5)cc4)CC3)cc2)c1=O (centres undefined) [ITRACONAZOLE] | 248.8 Å²
O=c1c(O)c(-c2ccc(O)cc2)oc2cc(O)cc(O)c12 [KAEMPFEROL] | 159.2 Å²
COC1=CC(=O)O[C@@H](/C=C/c2ccccc2)C1 [KAWAIN] | 149.4 Å²
CC(C(=O)O)c1cccc(C(=O)c2ccccc2)c1 (centres undefined) [KETOPROFEN] | 157.5 Å²
O=c1cc(CO)occ1O [KOJIC ACID] | 121.9 Å²
CC(=O)NCCc1ccc(O)c(-c2c(O)c(O)c3c(c2O)C(=O)c2c(cc(O)c(C(=O)O)c2C(=O)O)C3=O)c1 [LACCAIC ACID A] | 218.5 Å²
OC[C@H]1O[C@@H](O[C@@H]2[C@@H](CO)O[C@](O)(CO)[C@H]2O)[C@H](O)[C@@H](O)[C@H]1O [LACTULOSE] | 169.2 Å²
CC(=O)O[C@H]1C[C@H](O[C@H]2[C@@H](O)C[C@H](O[C@H]3[C@@H](O)C[C@H](O[C@H]4CC[C@@]5(C)[C@H](CC[C@@H]6[C@@H]5C[C@@H](O)[C@]5(C)[C@@H](C7=CC(=O)OC7)CC[C@]65O)C4)O[C@@H]3C)O[C@@H]2C)O[C@H](C)[C@H]1O[C@@H]1O[C@H](CO)[C@@H](O)[C@H](O)[C@H]1O [LANATOSIDE C] | 289.4 Å²
CCN1C[C@]2(OC(=O)c3ccccc3NC(C)=O)CC[C@H](OC)C34C1C(C[C@@H]32)[C@@]1(O)C[C@H](OC)[C@H]2C[C@@H]4[C@]1(O)[C@H]2OC [LAPPACONITINE] | 232.5 Å²
C[N+](C)(C)C[C@H](O)CC(=O)[O-] [LEVOCARNITINE] | 132.9 Å²

Compound | collision cross section (N2)
C[C@H]1COc2c(N3CCN(C)CC3)c(F)cc3c(=O)c(C(=O)O)cn1c23 [LEVOFLOXACIN] | 188.5 Å²
C[C@H](CCC(=O)O)[C@H]1CC[C@H]2[C@@H]3CC[C@@H]4C[C@H](O)CC[C@]4(C)[C@H]3CC[C@]12C [LITHOCHOLIC ACID] | 210.8 Å²
CCCCCc1c2c(cc(O)c1C(=O)O)OC(=O)c1c(cc(OC)cc1C(=O)CCCC)O2 [LOBARIC ACID] | 209.7 Å²
CCOC(=O)Nc1nc2ccccc2[nH]1 [LOBENDAZOLE] | 141.7 Å²
O=C1CC[C@]23/C=C/C(=O)NCCCCNCCCNC(=O)/C=C/c4ccc(c2c4)O[C@@H]3C1 [LUNARINE] | 203.4 Å²
OC[C@@H]1CCCN2CCCC[C@H]12 [LUPININE] | 135.3 Å²
O=c1c2cc(O)c(O)cc2oc2cc(O)c([C@@H]3O[C@H](CO)[C@@H](O)[C@H](O)[C@H]3O)c(O)c12 [MANGIFERIN] | 189.8 Å²
COC(=O)Nc1nc2ccc(C(=O)c3ccccc3)cc2[nH]1 [MEBENDAZOLE] | 171.2 Å²
CC(=O)O[C@]1(C(C)=O)CC[C@H]2[C@@H]3C[C@H](C)C4=CC(=O)CC[C@]4(C)[C@H]3CC[C@@]21C [MEDROXYPROGESTERONE ACETATE] | 197.2 Å²
CC(=O)[C@H]1CC[C@H]2[C@@H]3C[C@H](C)C4=CC(=O)CC[C@]4(C)[C@H]3[C@@H](O)C[C@]12C [MEDRYSONE] | 183.2 Å²
CCN(CC)CCNC(=O)COc1ccc(OC)cc1 [MEFEXAMIDE] | 171.2 Å²
O[C@@H](c1cc(C(F)(F)F)nc2c(C(F)(F)F)cccc12)[C@H]1CCCCN1 [MEFLOQUINE] | 181.8 Å²
CNC[C@H](O)[C@@H](O)[C@H](O)[C@H](O)CO [MEGLUMINE] | 139 Å²
CC1=C2C(O)C(=O)OC3CC4C(C)(C)C(=O)C=C[C@]4(C)C(CC1)[C@]23C (some centres undefined) [MEROGEDUNIN] | 179.8 Å²
Cn1cc[nH]c1=S [METHIMAZOLE] | 117.2 Å² and 117.1 Å²
CN(Cc1cnc2nc(N)nc(N)c2n1)c1ccc(C(=O)N[C@@H](CCC(=O)O)C(=O)O)cc1 [METHOTREXATE] | 194.8 Å²
COc1c2occc2cc2ccc(=O)oc12 [METHOXSALEN] | 139.9 Å²
C[C@](N)(Cc1ccc(O)c(O)c1)C(=O)O [METHYLDOPA] | 147.6 Å²
CC1=CC2C(CC1=O)C(C)=CCC2C(C)C (centres undefined) [MUUROLLADIE-3-ONE] | 138.5 Å²
c1cncc(C2=NCCC2)c1 [MYOSMINE] | 128.2 Å²
NC(N)=NC(=O)c1nc(Cl)c(N2CCCCCC2)nc1N [N,N-HEXAMETHYLENEAMILORIDE] | 174.7 Å²
CCC(C)C(NC)C(=O)O (centres undefined) [N-METHYLISOLEUCINE] | 130.6 Å²
CN1CCOC(c2ccccc2)c2ccccc2C1 (centres undefined) [NEFOPAM] | 157.1 Å²

same assay, conditions: [M+Na]+; instrument: TW; calibrated with polyalanine and drug standards

Compound | collision cross section (N2)
COC(C)(C)CCC[C@H](C)C/C=C/C(C)=C/C(=O)OC(C)C [METHOPRENE (S)] | 187 Å²
CC[C@H](C)C(=O)O[C@H]1CCC=C2C=C[C@H](C)[C@H](CC[C@@H]3C[C@@H](O)CC(=O)O3)[C@H]21 [MEVASTATIN] | 198.4 Å²
